According to patent publication US20260062420A1, “NOVEL DPP1 INHIBITORS AND USES THEREOF” (Insmed Incorporated, priority 2022, published 2026):
Like-named read-outs stand apart in the source and are kept apart here.

What was measured:
[1] = molecular target: Recombinant human DPP1 enzyme (Homo sapiens (Human), UniProt P53634); test: Human DPP1 Enzyme IC50 Assay; type: biochemical
Description: Recombinant human DPP1 enzyme (R&D Systems; Minneapolis, MN) was first proteolytically processed into its mature form using recombinant human cathepsin L (R&D Systems) in a buffer consisting of 20 mM citric acid pH 4.5, 150 mM NaCl, 1 mM EDTA and 10 mM DTT. Test articles were applied to activated human DPP1 enzyme in Assay Buffer (25 mM MES pH 6.0, 50 mM NaCl, 5 mM DTT) in a total reaction volume of 125 μL. 25 μL of compound in Assay Buffer plus 5% DMSO was first added to 50 μL of activated human DPP1 enzyme at a concentration of 1 ng/μL and allowed to pre-incubate for 10 minutes at 37° C. after which 50 μL of 1000 μM H-Gly-Arg-AMC substrate (Bachem; St. Torrance, CA) was added, giving final substrate concentration of 400 μM and a final DMSO concentration of 1%. Substrate cleavage was measured for 90 minutes at 37° C., with fluorescence at Excitation/Emission 350/450 nm measured every 5 minutes. DPP1 concentration was interpolated based on its activity relative to a standard curve of activated human recombinant DPP1 enzyme. IC50 values for each compound were calculated via the XLFit (IDBS Version 5.3.1.3) Add-On to Microsoft Excel using the four parameter fit equation y={A+[(B−A)]/[1+((C/x)^D)]}, which appears as equation number 205 (4 Parameter Logistic Model or Sigmoidal Dose-Response Model) in XLFit. Default constraints were used for each Parameter.

active mouse DPP1 enzyme = active mouse DPP1 enzyme (Mus musculus (Mouse), UniProt P97821); test: Mouse DPP1 Enzyme IC50 Assay; type: biochemical
Description: Test articles were applied to active mouse DPP1 enzyme (R&D Systems; Minneapolis, MN) in Assay Buffer (50 mM MES pH 5.5, 50 mM NaCl, 5 mM DTT) in a total reaction volume of 125 μL. 25 μL of compound in Assay Buffer plus 5% DMSO was first added to 50 μL of active mouse DPP1 enzyme at a concentration of 62.5 pg/μL and allowed to pre-incubate for 10 minutes at 37° C. after which 50 μL of 1000 μM H-Gly-Arg-AMC substrate (Bachem; St. Torrance, CA) was added, giving final substrate concentration of 400 μM and a final DMSO concentration of 1%. Substrate cleavage was measured for 90 minutes at 37° C., with fluorescence at Excitation/Emission 350/450 nm measured every 5 minutes. DPP1 concentration was interpolated based on its activity relative to a standard curve of recombinant active mouse DPP1 enzyme. IC50 values for each compound were calculated via the XLFit (IDBS Version 5.3.1.3) Add-On to Microsoft Excel using the four parameter fit equation y=(A+((B−A)/(1+((C/x)^D)))), which appears as equation number 205 (4 Parameter Logistic Model or Sigmoidal Dose-Response Model) in XLFit. Default constraints were used for each Parameter. IC50 was defined as the compound concentration at which 50% of enzyme activity was inhibited when compared to the no-compound control.

[2] = human DPP1 enzyme, Table 16, read-out: IC50, nM, Human
[3] = mouse DPP1 enzyme, Table 16, read-out: IC50, nM, Mouse
[4] = figure legends FIG. 14 and 15, read-out: IC50, in vitro inhibition of human DPP1
[5] = figure legends FIG. 12 and 13, read-out: IC50, in vitro inhibition of mouse DPP1
[6] = mouse DPP1 enzyme, H-Gly-Arg-AMC substrate 400 μM, Table 13, read-out: IC50

Sequence of active mouse DPP1 enzyme (P97821 25-134): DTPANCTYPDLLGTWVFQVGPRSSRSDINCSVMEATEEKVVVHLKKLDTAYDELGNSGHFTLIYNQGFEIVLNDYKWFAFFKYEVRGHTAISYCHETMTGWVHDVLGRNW
Sequence of active mouse DPP1 enzyme (P97821 231-393): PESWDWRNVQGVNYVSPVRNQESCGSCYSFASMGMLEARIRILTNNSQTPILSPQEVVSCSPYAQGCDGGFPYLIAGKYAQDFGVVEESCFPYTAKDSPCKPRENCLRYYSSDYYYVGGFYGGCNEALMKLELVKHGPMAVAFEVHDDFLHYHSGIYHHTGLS
Sequence of active mouse DPP1 enzyme (P97821 394-462): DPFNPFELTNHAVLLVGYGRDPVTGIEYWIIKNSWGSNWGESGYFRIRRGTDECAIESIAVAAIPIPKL
Sequence of Recombinant human DPP1 enzyme (P53634 25-134): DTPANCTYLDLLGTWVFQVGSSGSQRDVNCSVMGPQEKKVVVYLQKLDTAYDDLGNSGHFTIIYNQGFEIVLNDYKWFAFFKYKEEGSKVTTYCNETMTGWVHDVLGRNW
Sequence of Recombinant human DPP1 enzyme (P53634 231-394): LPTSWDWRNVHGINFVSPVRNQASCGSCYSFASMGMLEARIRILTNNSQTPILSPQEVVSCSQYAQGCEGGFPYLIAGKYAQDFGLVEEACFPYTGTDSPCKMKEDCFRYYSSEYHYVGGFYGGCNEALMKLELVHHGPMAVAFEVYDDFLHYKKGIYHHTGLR
Sequence of Recombinant human DPP1 enzyme (P53634 395-463): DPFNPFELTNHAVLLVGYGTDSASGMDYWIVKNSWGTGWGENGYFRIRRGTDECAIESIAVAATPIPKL

| Compound | IC50 [1, 2] [nM] | IC50 (active mouse DPP1 enzyme; [3]) [nM] | other results |
| --- | --- | --- | --- |
| CO[C@H]1CNC[C@@H](C(=O)N[C@H](C#N)Cc2ccc(-c3ccc4oc(=O)n(C)c4c3)cc2)OC1 | 745 | 583 |  |
| Cn1c(=O)oc2ccc(-c3ccc(C[C@@H](C#N)NC(=O)C4CNCC45CCC5)cc3)cc21 (stereo partly shown) [drawing 1229] | 1220 |  |  |
| [2H]C([2H])([2H])n1c(=O)oc2ccc(-c3ccc(C[C@@H](C#N)NC(=O)C4CNC4)s3)cc21 | 4940 |  |  |
| Cn1c(=O)oc2ccc(-c3ccc(C[C@@H](C#N)NC(=O)C4CCCCC4)cc3)cc21 | > 5000 | > 5000 |  |
| Cn1c(=O)oc2ccc(-c3ccc(C[C@@H](C#N)NC(=O)[C@@H]4C[C@H]5COC[C@H]5N4)cc3)cc21 [drawing 1154] | 69.2 | 45.6 |  |
| Cn1c(=O)oc2ccc(-c3ccc(CC(C#N)NC(=O)C4CNC4)cc3)cc21 (stereo not shown) | 1660 |  |  |
| Cn1c(=O)oc2ccc(-c3ccc(C[C@@H](C#N)NC(=O)CC4CCCN4)cc3)cc21 (stereo partly shown) | > 5000 | > 5000 |  |
| N#Cc1ccc(-c2ccc(C[C@@H](C#N)NC(=O)[C@@H]3C[C@H]4COC[C@H]4N3)cc2)cc1 [IWD-004, (2S,3αR,6αS)—N—((S)-1-cyano-2-(4′-cyano-[1,1′-biphenyl]-4-yl)ethyl)hexahydro-1H-furo[3,4-b]pyrrole-2-carboxamide] |  |  | IC50 [1, 4]: 245 nM; IC50 (active mouse DPP1 enzyme; [5]): 209 nM; IC50 (active mouse DPP1 enzyme; [6]): 209 nM |
| Cn1c(=O)oc2ccc(-c3ccc(C[C@@H](C#N)NC(=O)CC4COCCN4)cc3)cc21 (stereo partly shown) | > 5000 | > 5000 |  |
| Cn1c(=O)oc2ccc(-c3ccc(C[C@@H](C#N)NC(=O)C4CCC(N)C4)cc3)cc21 (stereo partly shown) | > 5000 | > 5000 |  |
| Cn1c(=O)oc2ccc(-c3ccc(C[C@@H](C#N)NC(=O)C4CNCC(O)C4)cc3)cc21 (stereo partly shown) | 2030 | 2170 |  |
| N#Cc1ccc(-c2ccc(C[C@@H](C#N)NC(=O)C3CNC3)c(F)c2)cc1 | 1560 | 1850 |  |
| Cn1c(=O)oc2ccc(-c3ccc(CC(C#N)NC(=O)[C@@]4(C)CNCCO4)cc3)cc21 (stereo partly shown) | 1040 |  |  |
| C=C1Oc2ccc(-c3ccc(C[C@@H](C#N)NC(=O)CC4(N)CCCS(=O)(=O)C4)cc3)cc2N1C (stereo partly shown) | > 5000 |  |  |
| Cn1c(=O)oc2ccc(-c3ccc(C[C@@H](C#N)NC(=O)C4CS(=O)(=O)CCN4)cc3)cc21 (stereo partly shown) | > 5000 | > 5000 |  |
| Cn1c(=O)oc2ccc(-c3ccc(C[C@@H](C#N)NC(=O)C4CC5CCN4CC5)cc3)cc21 (stereo partly shown) | > 5000 | > 5000 |  |
| [2H]C([2H])([2H])n1c(=O)oc2ccc(-c3ccc(C[C@@H](C#N)NC(=O)[C@@H]4C[C@@H]5COC[C@@H]5N4)s3)cc21 | 664 |  |  |
| Cn1c(=O)oc2ccc(-c3ccc(C[C@@H](C#N)NC(=O)[C@@H]4C[C@H]5COC[C@H]5N4)cc3)cc21 [IWD-005, (2S,3αR,6αS)—N—((S)-1-cyano-2-(4-(3-methyl-2-oxo-2,3-dihydrobenzo[d]oxazol-5-yl)phenyl)ethyl)hexahydro-1H-furo[3,4-b]pyrrole-2-carboxamide] |  |  | IC50 [1, 4]: 69.2 nM; IC50 ([1]; human DPP1 enzyme, H-Gly-Arg-AMC substrate 400 μM, Table 14, read-out: IC50): 69.2 nM; IC50 (active mouse DPP1 enzyme; [5]): 45.6 nM; IC50 (active mouse DPP1 enzyme; [6]): 45.6 nM |
| Cn1c(=O)oc2ccc(-c3ccc(C[C@@H](C#N)NC(=O)[C@@H]4CNCCCO4)cc3)cc21 [brensocatib, reference compound] |  |  | IC50 (active mouse DPP1 enzyme; [5]): 24.3 nM; IC50 (active mouse DPP1 enzyme; [6]): 24.3 nM |
| C=C1Oc2ccc(-c3ccc(C[C@@H](C#N)NC(=O)C4CNC[C@H](O)CO4)cc3)cc2N1C (stereo partly shown) | 2.3 | 2 |  |
| Cn1c(=O)oc2ccc(-c3ccc(C[C@@H](C#N)NC(=O)[C@]4(C)CNCCO4)cc3)cc21 | > 5000 |  |  |
| C[C@@H]1NCCC[C@@H]1C(=O)N[C@H](C#N)Cc1ccc(-c2ccc3oc(=O)n(C)c3c2)cc1 | 1320 |  |  |
| [2H]C([2H])([2H])n1c(=O)oc2ccc(-c3ccc(C[C@@H](C#N)NC(=O)C4CNC4)cc3)cc21 | 1510 |  |  |

The next lines start with results.

| IC50 [1, 2] [nM] | IC50 (active mouse DPP1 enzyme; [3]) [nM] | Compound | other results |
| --- | --- | --- | --- |
| 3660 | 2770 | Cn1c(=O)oc2ccc(-c3ccc(C[C@@H](C#N)NC(=O)C4(CN)CCC4)cc3)cc21 |  |
| > 5000 | > 5000 | N#Cc1ccc(-c2ccc(C[C@@H](C#N)NC(=O)[C@H]3C[C@@H]4COC[C@@H]4N3)cc2)cc1 |  |
| > 5000 | > 5000 | Cn1c(=O)oc2ccc(-c3ccc(C[C@@H](C#N)NC(=O)C4CNCCN4)cc3)cc21 (stereo partly shown) |  |
| 2180 | 3160 | Cn1c(=O)oc2ccc(-c3ccc(C[C@@H](C#N)NC(=O)C4(C)CNCCO4)cc3)cc21 (stereo partly shown) |  |
| 1310 | 2430 | Cn1c(=O)oc2ccc(-c3ccc(CC(C#N)NC(=O)[C@H]4CCNC[C@H]4N)cc3)cc21 (stereo partly shown) |  |
| > 5000 | > 5000 | Cn1c(=O)oc2ccc(-c3ccc(C[C@@H](C#N)NC(=O)C4CCNCC4)cc3)cc21 |  |
| > 5000 | > 5000 | Cn1c(=O)oc2ccc(-c3ccc(C[C@@H](C#N)NC(=O)[C@@H]4C[C@H]5OCC[C@H]5N4)cc3)cc21 |  |
| 2610 |  | N#Cc1ccc(-c2ccc(C[C@@H](C#N)NC(=O)C3C[C@@H]4COC[C@@H]4N3)cc2)cc1 (stereo partly shown) |  |
| > 5000 | > 5000 | Cn1c(=O)oc2ccc(-c3ccc(C[C@@H](C#N)NC(=O)[C@H]4C[C@@H]5COC[C@@H]5N4)cc3)cc21 |  |
| > 5000 | > 5000 | Cn1c(=O)oc2ccc(-c3ccc(C[C@@H](C#N)NC(=O)C4C=CCNC4)cc3)cc21 (stereo partly shown) |  |
| 269 | 209 | N#Cc1ccc(-c2ccc(C[C@@H](C#N)NC(=O)[C@@H]3C[C@H]4COC[C@H]4N3)cc2)cc1 [drawing 1153] |  |
|  | 8.1 | Cn1c(=O)oc2ccc(-c3ccc(C[C@@H](C#N)NC(=O)[C@@H]4CNCCCO4)c(F)c3)cc21 |  |
| 589 | 247 | Cn1c(=O)oc2ccc(-c3ccc(C[C@@H](C#N)NC(=O)[C@@H]4C[C@@H]5COC[C@@H]5N4)s3)cc21 |  |
| > 5000 | > 5000 | Cn1c(=O)oc2ccc(-c3ccc(C[C@@H](C#N)NC(=O)C4(N)CCS(=O)(=O)C4)cc3)cc21 (stereo partly shown) |  |
| 4820 | 2760 | Cn1c(=O)oc2ccc(-c3ccc(C[C@@H](C#N)NC(=O)C4CNCCS(=O)(=O)C4)cc3)cc21 (stereo partly shown) |  |
| > 5000 | > 5000 | Cn1c(=O)oc2ccc(-c3ccc(C[C@@H](C#N)NC(=O)CC(N)C4CC4)cc3)cc21 (stereo partly shown) |  |
|  | 27 | Cn1c(=O)oc2ccc(-c3ccc(C[C@@H](C#N)NC(=O)[C@@H]4CNCCCO4)cc3)cc21 [drawing 1149] |  |
| > 5000 | 4930 | Cn1c(=O)oc2ccc(-c3ccc(C[C@@H](C#N)NC(=O)C4CNC4)s3)cc21 |  |
| 4480 |  | C[C@H]1NCCC[C@H]1C(=O)N[C@H](C#N)Cc1ccc(-c2ccc3oc(=O)n(C)c3c2)cc1 |  |
| 2540 | 3290 | Cn1c(=O)oc2ccc(-c3ccc(C[C@@H](C#N)NC(=O)CC4(N)CCOC4)cc3)cc21 (stereo partly shown) |  |
| > 5000 | > 5000 | C=C1Oc2ccc(-c3ccc(C[C@@H](C#N)NC(=O)CC4(N)CCS(=O)(=O)C4)cc3)cc2N1C (stereo partly shown) |  |
| 940 |  | Cn1c(=O)oc2ccc(-c3ccc(C[C@@H](C#N)NC(=O)[C@@H]4C[C@@H]5COC[C@@H]5N4)cc3)cc21 [drawing 1156] |  |
| 140 | 92.4 | N#Cc1ccc(-c2ccc(C[C@@H](C#N)NC(=O)[C@@H]3C[C@H]4C[C@H]4N3)cc2)cc1 |  |
| > 5000 | > 5000 | Cn1c(=O)oc2ccc(-c3ccc(C[C@@H](C#N)NC(=O)C4=CS(=O)(=O)CCNC4)cc3)cc21 |  |
| > 5000 | > 5000 | Cn1c(=O)oc2ccc(-c3ccc(CC(C#N)NC(=O)[C@H]4CCNC[C@@H]4N)cc3)cc21 (stereo partly shown) |  |
| > 5000 | > 5000 | N#Cc1ccc(-c2ccc(C[C@@H](C#N)NC(=O)C3CNC3)s2)cc1 |  |
| > 5000 | > 5000 | Cn1c(=O)oc2ccc(-c3ccc(C[C@@H](C#N)NC(=O)C4CCNC4)cc3)cc21 (stereo partly shown) |  |
| 526 | 107 | N#Cc1ccc(-c2ccc(C[C@@H](C#N)NC(=O)[C@@H]3C[C@@H]4COC[C@@H]4N3)c(F)c2)cc1 |  |
